Experimental data: patent US20100062477A1, “METHODS OF ISOLATING AND PROPAGATING STEM CELLS FROM BENIGN TUMORS” (CEDARS-SINAI MEDICAL CENTER, priority 2006, published 2010)

System: Pituitary tumor stem cells and adherent daughter cells
Experiment: WST-1 proliferation assay of resistance to chemotherapeutic treatment
Assay type: cell-based, human
Details: 50 μM carboplatin and 12.5 μM VP16 for 48 h; stem cells compared with adherent cells
Experimental: Pituitary tumor stem cells and adherent daughter cells were also tested for the resistance to chemotherapeutic treatment. Cells were treated with 50 μM carboplatin and 12.5 μM VP16 for 48 h and the toxicity was assessed by WST-1 proliferation assay.

| SMILES | toxicity assessed by WST-1 proliferation assay (resistance of pituitary tumor stem cells vs adherent daughter cells) |
| --- | --- |
| COc1cc([C@@H]2c3cc4c(cc3[C@@H](O[C@@H]3O[C@@H]5CO[C@@H](C)O[C@H]5[C@H](O)[C@H]3O)[C@H]3COC(=O)[C@H]23)OCO4)cc(OC)c1O [VP16] | significantly more resistant than the adherent cells |
| N.N.O=C([O-])C1(C(=O)[O-])CCC1.[Pt+2] [carboplatin] | significantly more resistant than the adherent cells |
